Reference: patent US6737383B1, “Herbicidal oxadiazolidines” (priority 1999, dated 2004)

How the values were obtained:
[1] = system: blackgrass; assay: Test B pre/postemergence blackgrass; format: in vivo, Alopecurus myosuroides
Method in brief: (§1)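 Test chemicals in a non-phytotoxic solvent mixture with surfactant were sprayed preemergence onto planted seeds and postemergence onto plants 2 to 18 cm tall (1- to 4-leaf stage). After twelve to sixteen days in a greenhouse, injury was visually rated against untreated controls from 0 (no effect) to 10 (complete control).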

[2] = system: surinam grass; assay: Test B pre/postemergence surinam grass; format: in vivo, Brachiaria decumbens
Method in brief: as §1

[3] = system: cocklebur; assay: Test B pre/postemergence cocklebur; format: in vivo, Xanthium strumarium
Method in brief: as §1

[4] = system: corn; assay: Test B pre/postemergence corn; format: in vivo, Zea mays
Method in brief: as §1

[5] = system: crabgrass; assay: Test B pre/postemergence crabgrass; format: in vivo, Digitaria sanguinalis
Method in brief: as §1

[6] = system: giant foxtail; assay: Test B pre/postemergence giant foxtail; format: in vivo, Setaria faberii
Method in brief: as §1

[7] = system: morningglory; assay: Test B pre/postemergence morningglory; format: in vivo, Ipomoea hederacea
Method in brief: as §1

[8] = system: pigweed; assay: Test B pre/postemergence pigweed; format: in vivo, Amaranthus retroflexus
Method in brief: as §1

[9] = system: rape; assay: Test B pre/postemergence rape; format: in vivo, Brassica napus
Method in brief: as §1

[10] = system: soybean; assay: Test B pre/postemergence soybean; format: in vivo, Glycine max
Method in brief: as §1

[11] = system: sugar beet; assay: Test B pre/postemergence sugar beet; format: in vivo, Beta vulgaris
Method in brief: as §1

[12] = system: velvetleaf; assay: Test B pre/postemergence velvetleaf; format: in vivo, Abutilon theophrasti
Method in brief: as §1

[13] = system: wild oat; assay: Test B pre/postemergence wild oat; format: in vivo, Avena fatua
Method in brief: as §1

[14] = system: purple nutsedge; assay: Test B pre/postemergence purple nutsedge; format: in vivo, Cyperus rotundus
Method in brief: as §1

[15] = system: smallflower flatsedge; assay: Test B flood test smallflower flatsedge; format: in vivo, Cyperus difformis
Method in brief: (§2)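 Read-out is a visual response score from 0 (no effect) to 10 (complete control), assigned by comparison with untreated controls. Treatment was applied at the 2-leaf stage, and plants stayed in the greenhouse for twelve to sixteen days before scoring.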

[16] = system: bamyardgrass; assay: Test B flood test barnyardgrass; format: in vivo, Echinochloa crus-galli
Method in brief: as §2

[17] = Preemergence, Rate 62 g/ha, scale of 0 to 10 where 0 is no effect and 10 is complete control
[18] = Preemergence, Rate 500 g/ha, scale of 0 to 10 where 0 is no effect and 10 is complete control
[19] = Rate 62 g/ha, Postemergence, scale of 0 to 10 where 0 is no effect and 10 is complete control
[20] = Rate 125 g/ha, Postemergence, scale of 0 to 10 where 0 is no effect and 10 is complete control
[21] = Rate 125 g/ha, Preemergence, scale of 0 to 10 where 0 is no effect and 10 is complete control
[22] = Rate 250 g/ha, Postemergence, scale of 0 to 10 where 0 is no effect and 10 is complete control
[23] = Rate 500 g/ha, Postemergence, scale 0 to 10, 0 no effect, 10 complete control
[24] = Preemergence, Rate 250 g/ha, scale of 0 to 10 where 0 is no effect and 10 is complete control
[25] = Rate 62 g/ha, headed Pre-emergence (flood test species), scale 0 to 10 (0 no effect, 10 complete control)
[26] = Rate 125 g/ha, Pre-emergence, flood test species, scale 0 to 10 where 0 is no effect and 10 is complete control
[27] = Rate 250 g/ha, Pre-emergence, flood-test species, scale 0 to 10, 0 is no effect, 10 is complete control
[28] = Rate 500 g/ha, Pre-emergence, flood test species, scale 0 to 10 (0 no effect, 10 complete control)

Cc1cccc(C)c1-n1c(=O)on(C(=O)N(C(C)C)C2C=CCCC2)c1=O (stereo not shown) [Compound 273]
Blackgrass plant response rating [1, 17]: 0
Plant response rating, Blackgrass [1, 18]: 0
Blackgrass plant response rating [1, 19]: 0
Blackgrass plant response rating [1, 20]: 1
Blackgrass plant response rating [1, 21]: 0
Plant response rating, Blackgrass [1, 22]: 2
Blackgrass plant response rating [1, 23]: 4
B. signalgrass plant response rating [2, 17]: 0
B. signalgrass plant response rating [2, 24]: 2
Plant response rating, B. signalgrass [2, 18]: 3
B. signalgrass plant response rating [2, 19]: 0
B. signalgrass plant response rating [2, 20]: 0
B. signalgrass plant response rating [2, 21]: 0
Plant response rating, B. signalgrass [2, 22]: 0
B. signalgrass plant response rating [2, 23]: 0
Cocklebur plant response rating [3, 17]: 0
Cocklebur plant response rating [3, 24]: 0
Plant response rating, Cocklebur [3, 18]: 0
Cocklebur plant response rating [3, 19]: 0
Cocklebur plant response rating [3, 20]: 0
Cocklebur plant response rating [3, 21]: 0
Plant response rating, Cocklebur [3, 22]: 0
Cocklebur plant response rating [3, 23]: 0
Corn plant response rating [4, 17]: 0
Corn plant response rating [4, 24]: 0
Plant response rating, Corn [4, 18]: 0
Corn plant response rating [4, 19]: 0
Corn plant response rating [4, 20]: 0
Corn plant response rating [4, 21]: 0
Plant response rating, Corn [4, 22]: 0
Corn plant response rating [4, 23]: 0
Crabgrass plant response rating [5, 17]: 2
Crabgrass plant response rating [5, 24]: 6
Plant response rating, Crabgrass [5, 18]: 9
Crabgrass plant response rating [5, 20]: 0
Crabgrass plant response rating [5, 21]: 6
Plant response rating, Crabgrass [5, 22]: 1
Crabgrass plant response rating [5, 23]: 3
Giant foxtail plant response rating [6, 17]: 7
Giant foxtail plant response rating [6, 24]: 8
Plant response rating, Giant foxtail [6, 18]: 9
Giant foxtail plant response rating [6, 20]: 0
Giant foxtail plant response rating [6, 21]: 8
Plant response rating, Giant foxtail [6, 22]: 0
Giant foxtail plant response rating [6, 23]: 2
Morningglory plant response rating [7, 17]: 0
Morningglory plant response rating [7, 24]: 0
Plant response rating, Morningglory [7, 18]: 0
Morningglory plant response rating [7, 20]: 0
Morningglory plant response rating [7, 21]: 0
Plant response rating, Morningglory [7, 22]: 2
Morningglory plant response rating [7, 23]: 3
Redroot pigweed plant response rating [8, 17]: 0
Redroot pigweed plant response rating [8, 24]: 0
Plant response rating, Redroot pigweed [8, 18]: 0
Redroot pigweed plant response rating [8, 20]: 0
Redroot pigweed plant response rating [8, 21]: 0
Plant response rating, Redroot pigweed [8, 22]: 2
Redroot pigweed plant response rating [8, 23]: 4
Rape plant response rating [9, 17]: 0
Rape plant response rating [9, 24]: 0
Plant response rating, Rape [9, 18]: 0
Rape plant response rating [9, 20]: 0
Rape plant response rating [9, 21]: 0
Plant response rating, Rape [9, 22]: 0
Rape plant response rating [9, 23]: 0
Soybean plant response rating [10, 17]: 0
Soybean plant response rating [10, 24]: 0
Plant response rating, Soybean [10, 18]: 0
Soybean plant response rating [10, 20]: 3
Soybean plant response rating [10, 21]: 0
Plant response rating, Soybean [10, 22]: 3
Soybean plant response rating [10, 23]: 4
Sugarbeets plant response rating [11, 17]: 0
Sugarbeets plant response rating [11, 24]: 6
Plant response rating, Sugarbeets [11, 18]: 7
Sugarbeets plant response rating [11, 20]: 0
Sugarbeets plant response rating [11, 21]: 0
Plant response rating, Sugarbeets [11, 22]: 0
Sugarbeets plant response rating [11, 23]: 0
Velvetleaf plant response rating [12, 17]: 0
Velvetleaf plant response rating [12, 24]: 0
Plant response rating, Velvetleaf [12, 18]: 1
Velvetleaf plant response rating [12, 20]: 0
Velvetleaf plant response rating [12, 21]: 0
Plant response rating, Velvetleaf [12, 22]: 0
Velvetleaf plant response rating [12, 23]: 2
Wild oats plant response rating [13, 17]: 0
Wild oats plant response rating [13, 24]: 0
Plant response rating, Wild oats [13, 18]: 3
Wild oats plant response rating [13, 20]: 0
Plant response rating, Wild oats [13, 22]: 0
Wild oats plant response rating [13, 23]: 0
Nutsedge plant response rating [14, 24]: 0
Plant response rating, Nutsedge [14, 18]: 0
Nutsedge plant response rating [14, 20]: 0
Plant response rating, Nutsedge [14, 22]: 0
Nutsedge plant response rating [14, 23]: 0
S. Flatsedge plant response rating [15, 25]: 0
S. Flatsedge plant response rating [15, 26]: 0
S. Flatsedge plant response rating [15, 27]: 0
S. Flatsedge plant response rating [15, 28]: 0
Barnyardgrass plant response rating [16, 25]: 0
Barnyardgrass plant response rating [16, 26]: 4
Barnyardgrass plant response rating [16, 27]: 4
Barnyardgrass plant response rating [16, 28]: 3
